Laboratory results: US9302967B2, “Substituted cathechols as inhibitors of IL-4 and IL-5 for the treatment of bronchial asthma” (Council of Scientific & Industrial Research, priority 2011, dated 2016)
Like-named read-outs stand apart in the source and are kept apart here.

What was measured:
IL-5 = test: PHA-stimulated human PBMC, IL-5 in supernatant by Cytometric Bead Array; type: cell-based; settings: PHA 10 μg/ml, read-out: IC50 inhibitory activity, stimulation-induced IL-5
Description: Normal human peripheral blood mononuclear cells (PBMC) were stimulated with phytohemagglutinin (PHA) 10 μg/ml in the presence and absence of varying concentrations of compounds of formula I and II. Culture supernatants were harvested and IIL-4 and IL-5 cytokines were quantitated by Cytometric Bead Array (CBA™) kit (Becton Dickinson, USA) following manufacturers instructions using a Flow Cytometer (BD LSR, Becton Dickinson) and CBA™ analysis software (Becton Dickinson).

IL-4 = IL-4 levels in lung homogenates by ELISA, OVA mouse model; type: in vivo, BALB/c mice; settings: for IL-4 levels in lung: 10 mg/kg vs OVA/OVA/VEH
Description: (§1) Mice were sensitized with 0.2 ml PBS containing 50 μg ovalbumin (OVA) (Sigma, USA) and 4 mg aluminum hydroxide in saline intraperitonially (i.p.) on days 0, 7 and 14 as shown in FIG. 1. Sham group mice were sensitized with only alum dissolved in PBS. From day 18 to 27, mice were exposed to aerosol of OVA (3%) inhalation 25 minutes daily in a Plexiglas chamber (20×20×10 cm^3). The aerosol was generated by a nebulizer (OMRON CX model) with an airflow rate of 9 L/minute. Sham group mice were challenged with PBS alone.
Compound 1 of formula I was dissolved in 50% ethanol. So 50% ethanol was used as a vehicle. Group I was alum sensitized, saline challenged and treated with vehicle (SHAM/SAL/VEH), group II was OVA sensitized, OVA challenged and treated with 50% ethanol as vehicle (OVA/OVA/VEH), group III, IV, V, VI were OVA sensitized, OVA challenged and treated with 0.05, 0.1, 5 and 10 mg/kg compound 1 of formula I. Drug was given in the volume of 10 μl orally twice per day. Confirmatory experiments were done with two concentrations of compound 1 of formula I (5 and 10 mg/kg twice a day), and these findings were compared with parallel group of mice which were OVA-sensitized, -OVA challenged and treated orally once a day with 0.75 mg/kg Dexamethasone (OVA/OVA/DEX).
OVA-specific IgE levels in sera were measured by enzyme linked immunosorbent assay (ELISA) as described previously with little modification (Inflam. Res. 2003, 52, 101-106). Absorbance values at 450 nm were converted to arbitrary values by multiplying with 100. IL-4 levels in lung homogenates were measured by ELISA method as per manufacturer's instructions (BD Pharmingen, USA). Lung homogenates were prepared by homogenizing the lung tissue (approximately 100 mg) with 1 ml PBS followed by centrifugation at 10000 g for 30 min at 4° C. Results were expressed in pg/50 μg protein. Protein estimation was done by BCA method.

OVA specific IgE = test: OVA-specific IgE levels in sera by ELISA, OVA mouse model; type: in vivo, BALB/c mice; settings: 10 mg/kg vs OVA/OVA/VEH
Description: as §1
Compound 1 of formula I was dissolved in 50% ethanol. So 50% ethanol was used as a vehicle. Group I was alum sensitized, saline challenged and treated with vehicle (SHAM/SAL/VEH), group II was OVA sensitized, OVA challenged and treated with 50% ethanol as vehicle (OVA/OVA/VEH), group III, IV, V, VI were OVA sensitized, OVA challenged and treated with 0.05, 0.1, 5 and 10 mg/kg compound 1 of formula I. Drug was given in the volume of 10 μl orally twice per day. […]
OVA-specific IgE levels in sera were measured by enzyme linked immunosorbent assay (ELISA) as described previously with little modification (Inflam. Res. 2003, 52, 101-106). Absorbance values at 450 nm were converted to arbitrary values by multiplying with 100. IL-4 levels in lung homogenates were measured by ELISA method as per manufacturer's instructions (BD Pharmingen, USA). […]

[1] = 14 d acute oral toxicity: observations, body weight, organ weight, necropsy; type: in vivo, mice
Description: (§2) 14 d acute oral toxicity of compound 1 of formula I was performed. Three doses were selected: 47, 23, 12 and 0 mg/kg bw (Vehicle control) of compound 1 of formula I was administered by single oral gavage using blunt ended steel canula.

[2] = parameters: species or system mice; settings: mouse, in vivo
Description: as §2
Clinical biochemistry was performed using detection kit purchased from SPINREACT, SA, Spain. The blood left after the hematological studies were allowed to clot for 2 h and serum separated by centrifugation at 3000 rpm for 5 min and subsequently used for clinical biochemistry. Details of the clinical biochemistry (Table 4) and relative organ weight (Table 5) are given below.

3T3 cells = test: In vitro cytotoxicity by NRU method, predicted acute oral LD50; type: cell-based; settings: derived from in vitro cytotoxicity
Description: (§3) Earlier, LD50 of ICB 14 C6 was derived from in vitro cytotoxicity assay by NRUmethod in 3T3 cells. […] For 90d sub-chronic toxicity study the highest dose selected was one-fourth of the limit dose. Four different doses of ICB14 C6 (47, 23, 12 and 0 [vehicle] mg/kg body weight) were prepared in ground nut oil daily for 5 days a week for 90d.

[3] = mouse, in vivo
Description: as §3
Blood samples were taken from the retro-orbital sinus on day 91 for hematological and clinical chemistry analyses. Clinical analysis included serum creatinine, serum gammaGT, serum uric acid, serum glucose, serum protein, serum bilirubin, serum GOT/AST and serum GPT/ALT. Hematology including white blood cell count was analyzed with the help of Automatic Hematology Analyzer (Medonic).
Before sacrifice, blood was drawn from the retro-orbital sinus of mice with the help of heparinised capillary tubes and hematological parameters were assessed with the help of Automatic Hematology Analyzer (Medonic CA535).

[4] = mouse, in vivo; remark: listed apart in the source
Description: as §3
After 90d of oral treatment with ICB3001, 3 mice in each group were sacrificed and major organs were placed in 10% formalin to prepare histological slides. The slides were stained by haematoxylin-eosin dye.

[5] = system: oral KB carcinoma cell line; settings: cited from earlier work
hepatocarcinoma cells = settings: cited from earlier work
COX-1 = COX-1 (Homo sapiens, UniProt P23219); settings: cited from earlier work
[6] = listed as compound of formula I

Chain of COX-1 (P23219 24-599): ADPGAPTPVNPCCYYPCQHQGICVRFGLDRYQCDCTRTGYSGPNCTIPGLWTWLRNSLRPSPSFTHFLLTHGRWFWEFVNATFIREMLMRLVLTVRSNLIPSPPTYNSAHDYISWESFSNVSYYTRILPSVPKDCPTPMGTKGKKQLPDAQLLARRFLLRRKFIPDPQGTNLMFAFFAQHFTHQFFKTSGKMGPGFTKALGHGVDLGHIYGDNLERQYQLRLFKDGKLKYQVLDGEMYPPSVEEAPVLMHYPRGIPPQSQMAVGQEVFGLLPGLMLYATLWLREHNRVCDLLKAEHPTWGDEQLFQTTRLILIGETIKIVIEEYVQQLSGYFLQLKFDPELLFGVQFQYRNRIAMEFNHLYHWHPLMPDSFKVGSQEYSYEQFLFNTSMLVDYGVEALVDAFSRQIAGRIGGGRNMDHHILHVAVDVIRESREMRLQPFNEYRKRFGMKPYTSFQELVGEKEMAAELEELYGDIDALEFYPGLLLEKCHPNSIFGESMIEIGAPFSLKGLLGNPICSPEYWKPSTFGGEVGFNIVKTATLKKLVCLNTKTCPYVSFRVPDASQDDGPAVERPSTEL

C=CCc1ccc(O)c(O)c1 [Compound 1, 4-allyl-benzene-1,2-diol]
IC50 (IL-5; Homo sapiens): 4.5 µM | IC50 (IL-5): 5 µM | reduction of lung IL-4 compared to DEX treated mice (IL-4; 10 mg/kg): approx. 65% | IL-4 levels in lung (IL-4): a decrease in the IL-4 levels | IL-4 levels in lung (IL-4; [6]): a significant reduction in the IL-4 levels | OVA specific IgE levels in sera (OVA specific IgE): significantly reduced the OVA specific IgE levels in sera | OVA specific IgE levels in sera (OVA specific IgE; [6]): significant reduction | acute oral (level) established from body weight, organ weight, necropsy, immunotoxicity, hematology, clinical chemistry, cage side observation ([1]; mice): 23 mg/kg | necropsy findings in vital organs ([1]; mouse, in vivo): no gross or microscopic lesion | clinical signs on day of administration ([1]; mouse, in vivo, po): transient symptoms of restlessness and rapid rate of respiration that persisted for 30 minutes post administration | feed and water consumption ([1]; mouse, in vivo, po): comparable to vehicle control group | morbidity and/or mortality ([1]; single oral 47, 23 and 12 mg/kg bw): did not result in any morbidity and/or mortality | serum bilirubin vs normal range [2]: marginal rise in the serum bilirubin | Acid phosphatase ([2]; 12 mg/kg): 2.98 ± 1.2 | Bilirubin ([2]; 12 mg/kg): 0.28 ± 0.30 mg/dL | Glucose ([2]; 12 mg/kg): 49 ± 0.193 mg/dL | SGOT ([2]; 12 mg/kg): 4.32 ± 1.87 U/L | SGPT ([2]; 12 mg/kg): 8.42 ± 5.8 U/L | Uric acid ([2]; 12 mg/kg): 5.89 ± 1.6 mg/dL | gammaGT ([2]; 12 mg/kg): 1.78 ± 0.68 U/L | Acid phosphatase ([2]; 23 mg/kg): 2.75 ± 0.74 | Bilirubin ([2]; 23 mg/kg): 0.19 ± 0.22 mg/dL | Glucose ([2]; 23 mg/kg): 57 ± 0.12 mg/dL | SGOT ([2]; 23 mg/kg): 8.64 ± 3.74 U/L | SGPT ([2]; 23 mg/kg): 12.15 ± 5.50 U/L | Uric acid ([2]; 23 mg/kg): 7.51 ± 4.13 mg/dL | gammaGT ([2]; 23 mg/kg): 2.38 ± 1.19 U/L | Acid phosphatase ([2]; 47 mg/kg): 2.06 ± 1.52 | Bilirubin ([2]; 47 mg/kg): 1.41 ± 0.3 mg/dL | Glucose ([2]; 47 mg/kg): 58 ± 0.07 mg/dL | SGOT ([2]; 47 mg/kg): 3.24 ± 2.91 U/L | SGPT ([2]; 47 mg/kg): 10.8 ± 23^ U/L | Uric acid ([2]; 47 mg/kg): 5.59 ± 2.67 mg/dL | gammaGT ([2]; 47 mg/kg): 2.38 ± 0.97 U/L | predicted acute oral LD50 (3T3 cells): 168 mg/kg | in vivo acute oral LD50 (In vivo acute oral LD50): 268 mg/kg bw | Hemoglobin, RBC and WBC counts vs normal range [3]: within the normal range | platelet counts vs normal range [3]: below the normal range | HGB ([3]; 12 mg/kg): 13.76 ± 0.55 g/dL | PLT ([3]; 12 mg/kg): 272 ± 93 ×10^3/mm^3 | RBC ([3]; 12 mg/kg): 10.07 ± 0.67 ×10^6/mm^3 | WBC ([3]; 12 mg/kg): 8.66 ± 1.27 ×10^3/mm^3 | HGB ([3]; 23 mg/kg): 13.85 ± 0.35 g/dL | PLT ([3]; 23 mg/kg): 306 ± 106 ×10^3/mm^3 | RBC ([3]; 23 mg/kg): 9.82 ± 0.014 ×10^6/mm^3 | WBC ([3]; 23 mg/kg): 10.85 ± 2.11 ×10^3/mm^3 | HGB ([3]; 47 mg/kg): 12.13 ± 0.57 g/dL | PLT ([3]; 47 mg/kg): 319 ± 120 ×10^3/mm^3 | RBC ([3]; 47 mg/kg): 8.51 ± 0.323 ×10^6/mm^3 | WBC ([3]; 47 mg/kg): 10.16 ± 1.03 ×10^3/mm^3 | heart histology [4]: no significant changes in the histo-architecture | kidney histology [4]: no significant changes were observed | liver histology [4]: no change in the structure of hepatic cells | lung histology ([4]; 47 mg/kg): slight thickening of intercellular septum and migration of polymorphonuclear lymphocytes | cell cycle arrest and apoptosis [5]: induce cell cycle arrest and apoptosis | cell cycle arrest and apoptosis (hepatocarcinoma cells): induce cell cycle arrest and apoptosis | COX-1 inhibition (COX-1): potent COX-1/COX-2 inhibitor
